This passage reports IC50, Selectivity and Kd results from patent US20250152585A1, “PHARMACEUTICAL COMPOUND” (Duke Street Bio Limited, priority 2022, published 2025).

Assay [1] has as its target T1, full length N-terminally FLAG-tagged PARP1 (Homo sapiens, UniProt P09874). Kind of assay: PARP1 biochemical DELFIA assay (auto-PARylation). Also noted: recombinant full length human N-terminally FLAG-tagged PARP1.
The target in assay [2] is T1, full length N-terminally FLAG-tagged PARP1. Kind of assay: PARP1 probe displacement HTRF assay. The following applies: for Selectivity: PARP1 over PARP2, ratio Kd (PARP2)/Kd (PARP1); for Kd: binned Kd. In general terms: In TR-FRET formats the signal depends on donor and acceptor labels being close together.
Assay [3] addresses T2, N-terminally FLAG-tagged PARP2 (amino acids 1-583) (Homo sapiens, UniProt Q9UGN5).
T2 construct: N-terminally FLAG-tagged PARP2 (amino acids 1-583)
Briefly: PARP2 probe displacement HTRF assay. Format: binding. The conditions noted are these: binned Kd. How it is done:
Data analysis was performed identical as for PARP1.

Assay [4] has as its target T3, PARP1 (Homo sapiens, UniProt P09874).
T3 construct: host or cells: HEK293
Kind of assay: NanoBRET cellular target occupancy assay, PARP1. It is filed as cell-based. The conditions noted are these: for Kd: HEK293 cells transiently transfected with PARP1-NanoLuc fusion, tracer 11 nM, 2 hours at 37° C., Kd by Cheng-Prussoff; for Selectivity: NanoBRET, PARP1 over PARP2, Kd (PARP2)/Kd (PARP1). Background: In BRET a luciferase serves as donor, and the signal depends on an acceptor being close.

For assay [5], the target named is T4, PARP2 (Homo sapiens, UniProt Q9UGN5).
T4 construct: host or cells: HEK293
T4 sequence (Q9UGN5 whole entry): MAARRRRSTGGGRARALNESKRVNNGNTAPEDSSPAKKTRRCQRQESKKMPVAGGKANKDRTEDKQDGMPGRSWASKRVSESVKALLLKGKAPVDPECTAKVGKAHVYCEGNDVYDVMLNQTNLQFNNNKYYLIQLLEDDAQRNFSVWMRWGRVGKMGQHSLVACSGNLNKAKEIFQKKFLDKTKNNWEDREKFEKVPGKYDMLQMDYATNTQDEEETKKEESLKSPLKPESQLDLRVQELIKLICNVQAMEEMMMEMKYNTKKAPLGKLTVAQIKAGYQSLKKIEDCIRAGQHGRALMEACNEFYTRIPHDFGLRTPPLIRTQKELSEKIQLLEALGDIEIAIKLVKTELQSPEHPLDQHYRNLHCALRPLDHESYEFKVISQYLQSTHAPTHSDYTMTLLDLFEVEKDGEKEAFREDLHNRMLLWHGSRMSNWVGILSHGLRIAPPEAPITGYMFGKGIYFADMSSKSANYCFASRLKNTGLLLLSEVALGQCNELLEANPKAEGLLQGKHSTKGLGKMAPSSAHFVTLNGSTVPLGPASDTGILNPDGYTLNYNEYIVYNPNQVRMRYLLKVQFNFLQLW
Kind of assay: NanoBRET cellular target occupancy assay, PARP2. It is filed as cell-based. The conditions noted are these: HEK293 cells transiently transfected with PARP2-NanoLuc fusion; tracer 2 nM; 2 hours at 37° C.; Kd by Cheng-Prussoff. From the text: NanoBRET Cellular Target Occupancy Assay

The mark [6] stands for this setting: binned IC50, PARP1 biochemical DELFIA assay.
[7] abbreviates: read-out: PARP1 HTRF, PARP1 probe displacement HTRF.
[8] abbreviates: binned IC50, biochemical auto-PARylation assay.
[9] abbreviates: read-out: PARP1 HTRF, probe displacement HTRF.

Where two headings read alike, the source gives them in different places.

T2 sequence (Q9UGN5 whole entry, the tested form may be a part): as the sequence (Q9UGN5 whole entry) above
T1 sequence (P09874 whole entry): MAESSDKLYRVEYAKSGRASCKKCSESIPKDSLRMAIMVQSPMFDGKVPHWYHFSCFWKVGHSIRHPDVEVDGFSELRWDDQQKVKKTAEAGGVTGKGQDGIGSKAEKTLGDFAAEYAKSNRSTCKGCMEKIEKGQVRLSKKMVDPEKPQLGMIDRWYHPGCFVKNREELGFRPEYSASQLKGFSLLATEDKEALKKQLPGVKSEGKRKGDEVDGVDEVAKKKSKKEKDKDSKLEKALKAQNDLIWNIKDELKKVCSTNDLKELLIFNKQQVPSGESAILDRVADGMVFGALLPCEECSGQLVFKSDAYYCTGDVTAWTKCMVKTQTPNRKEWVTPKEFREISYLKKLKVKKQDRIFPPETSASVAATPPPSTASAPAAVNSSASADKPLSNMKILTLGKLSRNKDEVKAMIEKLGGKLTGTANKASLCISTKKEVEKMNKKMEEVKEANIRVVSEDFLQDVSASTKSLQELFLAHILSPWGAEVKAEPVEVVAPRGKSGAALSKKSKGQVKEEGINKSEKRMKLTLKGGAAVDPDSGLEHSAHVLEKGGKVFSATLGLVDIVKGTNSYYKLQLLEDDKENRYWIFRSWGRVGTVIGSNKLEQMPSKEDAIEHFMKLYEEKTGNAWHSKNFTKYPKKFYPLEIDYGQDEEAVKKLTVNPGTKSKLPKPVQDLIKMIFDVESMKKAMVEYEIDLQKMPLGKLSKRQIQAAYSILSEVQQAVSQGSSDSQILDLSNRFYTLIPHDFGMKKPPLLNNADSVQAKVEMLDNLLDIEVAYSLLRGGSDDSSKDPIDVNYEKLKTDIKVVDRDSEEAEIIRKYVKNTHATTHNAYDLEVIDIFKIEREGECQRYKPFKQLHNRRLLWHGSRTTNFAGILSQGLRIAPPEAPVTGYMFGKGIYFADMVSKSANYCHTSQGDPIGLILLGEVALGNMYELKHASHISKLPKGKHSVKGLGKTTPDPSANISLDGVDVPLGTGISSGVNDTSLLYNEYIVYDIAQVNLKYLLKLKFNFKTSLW
T3 sequence (P09874 whole entry): as above

A word on the IC50: it is the concentration that gives 50% inhibition. For the compound `CNC(=O)c1ccc(N2CCC(N3CCC(c4cc5ccc(F)cc5c(=O)[nH]4)C3)CC2)cn1` (single isomer, unassigned) [Compound 154b, 5-(4-(3-(7-fluoro-1-oxo-1,2-dihydroisoquinolin-3-yl)pyrrolidin-1-yl)piperidin-1-yl)-N-methylpicolinamide], the half-maximal inhibitory concentration (IC50) in assay [1] (setting [6]) is less than 10 nM. For the same compound, the Selectivity result is given as “+ (+ indicates a value of 10 to less than 50)” in assay [2] (probe displacement HTRF) and “+++ (+++ indicate a value of at least 100)” in assay [4]. Further, the Kd in assay [2] (setting [7]) was less than 10 nM; in assay [3] (PARP2 probe displacement HTRF) it was 10 to 100 nM; in assay [4], less than 10 nM; in assay [5] it was 100 to 1000 nM.
Turning to `CNC(=O)c1ccc(N2CCC(N3CCC(c4cc5ccc(F)cc5c(=O)[nH]4)C3)CC2)c(F)n1` (single isomer, unassigned) [Compound 174a], the IC50 in assay [1] (setting [6]) was less than 10 nM. Besides, the Selectivity result in assay [2] (probe displacement HTRF) and in assay [4] was “+++ (+++ indicate a value of at least 100)” each time. In addition, the Kd in assay [2] (setting [7]) was less than 10 nM; in assay [3] (PARP2 probe displacement HTRF), 100 to 1000 nM; in assay [4], less than 10 nM; in assay [5], 1000 to 10000 nM.
Take `CNC(=O)c1ccc(N2CCC(N3CCC(c4cc5ccc(F)cc5c(=O)[nH]4)C3)CC2)c(F)n1` (single isomer, unassigned) [Compound 174b]: in assay [1] (setting [6]), the IC50 was less than 10 nM. Moreover, the Selectivity entry in assay [2] (probe displacement HTRF) and in assay [4] was “+++ (+++ indicate a value of at least 100)” each time. In addition, the Kd is less than 10 nM in assay [2] (setting [7]), 10 to 100 nM in assay [3] (PARP2 probe displacement HTRF), less than 10 nM in assay [4] and 100 to 1000 nM in assay [5].
As to `CNC(=O)c1ccc(N2CCC(N3CCC(c4cc5c(F)ccc(F)c5c(=O)[nH]4)C3)CC2)cn1` (single isomer, unassigned) [Compound 180b], in assay [1] (setting [6]), the IC50 is less than 10 nM. Also, the Selectivity result in assay [2] (probe displacement HTRF) is listed as “++ (++ indicates a value of 50 to less than 100)”; in assay [4] it was “+++ (+++ indicate a value of at least 100)”. The Kd is less than 10 nM in assay [2] (setting [7]), 10 to 100 nM in assay [3] (PARP2 probe displacement HTRF), less than 10 nM in assay [4] and 100 to 1000 nM in assay [5].
Take `CNC(=O)c1ccc(N2CCC(N3CCC(c4cc5cccc(F)c5c(=O)[nH]4)C3)CC2)c(Cl)n1` (single isomer, unassigned) [Compound 183b]: the IC50 in assay [1] (setting [6]) is less than 10 nM. The Selectivity entry in assay [2] (probe displacement HTRF) and in assay [4] was “+++ (+++ indicate a value of at least 100)” each time. The Kd in assay [2] (setting [7]) is less than 10 nM; in assay [3] (PARP2 probe displacement HTRF), 100 to 1000 nM; in assay [4], less than 10 nM; in assay [5] it was 1000 to 10000 nM.
As for `CNC(=O)c1ccc(N2CCC(N3CCC(c4cc5cccc(F)c5c(=O)[nH]4)C3)CC2)c(F)n1` (single isomer, unassigned) [Compound 184b, 6-fluoro-5-[4-[3-(8-fluoro-1-oxo-2H-isoquinolin-3-yl)pyrrolidin-1-yl]piperidin-1-yl]-N-methylpyridine-2-carboxamide], in assay [1] (setting [6]), the IC50 is less than 10 nM. Further, the Selectivity result in assay [2] (probe displacement HTRF) and in assay [4] was “+++ (+++ indicate a value of at least 100)” each time. The Kd in assay [2] (setting [7]) is less than 10 nM; in assay [3] (PARP2 probe displacement HTRF), 100 to 1000 nM; in assay [4], less than 10 nM; in assay [5], 100 to 1000 nM.
For `CNC(=O)c1ccc(N2CCC(N3CCC(c4cc5ccc(F)cc5c(=O)[nH]4)C3)CC2)c(C)n1` (single isomer, unassigned) [Compound 196a], in assay [1] (setting [6]), the half-inhibitory concentration (IC50) is less than 10 nM. For the same compound, the Selectivity entry in assay [2] (probe displacement HTRF) and in assay [4] was “+++ (+++ indicate a value of at least 100)” throughout. Also, the Kd in assay [2] (setting [7]) is less than 10 nM; in assay [3] (PARP2 probe displacement HTRF), 100 to 1000 nM; in assay [4] it was less than 10 nM; in assay [5], 100 to 1000 nM.
On to `CNC(=O)c1ccc(N2CCC(N3CCC(c4cc5ccc(F)cc5c(=O)[nH]4)C3)CC2)nn1` (single isomer, unassigned) [Compound 197a], for which the IC50 in assay [1] (setting [6]) was less than 10 nM. Moreover, the Selectivity result in assay [2] (probe displacement HTRF) and in assay [4] was “+++ (+++ indicate a value of at least 100)” each time. Also, the Kd in assay [2] (setting [7]) is less than 10 nM; in assay [3] (PARP2 probe displacement HTRF), 100 to 1000 nM; in assay [4] it was less than 10 nM; in assay [5] it was 100 to 1000 nM.
Consider `CNC(=O)c1ccc(N2CCC(N3CCC(c4cc5ccc(F)cc5c(=O)[nH]4)C3)CC2)c(Cl)n1` (single isomer, unassigned) [Compound 223b], for which, in assay [1] (setting [8]), the IC50 was less than 10 nM. Besides, the Selectivity entry in assay [2] (probe displacement HTRF) and in assay [4] was “+++ (+++ indicate a value of at least 100)” each time. Further, the Kd was less than 10 nM in assay [2] (setting [9]), 100 to 1000 nM in assay [3] (probe displacement HTRF), less than 10 nM in assay [4] and 100 to 1000 nM in assay [5].
Take `CCc1ccc(C2CCN(C3CCN(c4ccc(C(=O)NC)nc4Cl)CC3)C2)[nH]c1=O` (single isomer, unassigned) [Compound 239b]: the half-maximal inhibitory concentration (IC50) in assay [1] (setting [8]) is less than 10 nM. The Selectivity entry in assay [2] (probe displacement HTRF) and in assay [4] was “+++ (+++ indicate a value of at least 100)” in each case. Further, the Kd in assay [2] (setting [9]) was less than 10 nM; in assay [3] (probe displacement HTRF) it was 1000 to 10000 nM; in assay [4], less than 10 nM; in assay [5] it was 1000 to 10000 nM.
As to `CNC(=O)c1ccc(N2CCC(N3CCC(c4ccc(CC5CC5)c(=O)[nH]4)C3)CC2)c(F)n1` (single isomer, unassigned) [Compound 313b], in assay [1] (setting [8]), the 50% inhibitory concentration (IC50) is less than 10 nM. The Selectivity result in assay [2] (probe displacement HTRF) and in assay [4] was “+++ (+++ indicate a value of at least 100)” in each case. The Kd in assay [2] (setting [9]) is less than 10 nM; in assay [3] (probe displacement HTRF), 1000 to 10000 nM; in assay [4], less than 10 nM; in assay [5], 1000 to 10000 nM.
In the case of `N#Cc1ccc(N2CCC(N3CCC(c4cc5cccc(F)c5c(=O)[nH]4)C3)CC2)cc1` (single isomer, unassigned) [Compound 314b], the IC50 in assay [1] (setting [8]) is less than 10 nM. In addition, the Selectivity entry in assay [2] (probe displacement HTRF) and in assay [4] was “+++ (+++ indicate a value of at least 100)” in each case. Further, the Kd in assay [2] (setting [9]) is less than 10 nM; in assay [3] (probe displacement HTRF) it was 100 to 1000 nM; in assay [4], less than 10 nM; in assay [5], 100 to 1000 nM.
As for `N#Cc1ccc(N2CCC(N3CCC(c4cc5cccc(F)c5c(=O)[nH]4)C3)CC2)cn1` (single isomer, unassigned) [Compound 316a], in assay [1] (setting [8]), the IC50 is less than 10 nM. Besides, the Selectivity entry in assay [2] (probe displacement HTRF) and in assay [4] was “+++ (+++ indicate a value of at least 100)” each time. Further, the Kd is less than 10 nM in assay [2] (setting [9]), 100 to 1000 nM in assay [3] (probe displacement HTRF), less than 10 nM in assay [4] and 100 to 1000 nM in assay [5].
`CCc1ccc(C2CCN(C3CCN(c4ccc(C(=O)NCCF)nc4F)CC3)C2)[nH]c1=O` (single isomer, unassigned) [Compound 322b]: the IC50 in assay [1] (setting [8]) is less than 10 nM. Moreover, the Selectivity result in assay [2] (probe displacement HTRF) and in assay [4] was “+++ (+++ indicate a value of at least 100)” each time. For the same compound, the Kd in assay [2] (setting [9]) is less than 10 nM; in assay [3] (probe displacement HTRF), 100 to 1000 nM; in assay [4], less than 10 nM; in assay [5], 100 to 1000 nM.
On to `CNC(=O)c1ccc(N2CCC(N3CCC(c4cc5c(F)ccc(F)c5c(=O)[nH]4)C3)CC2)c(F)n1` (single isomer, unassigned) [Compound 323a], for which the half-maximal inhibitory concentration (IC50) in assay [1] (setting [8]) was less than 10 nM. Also, the Selectivity entry in assay [2] (probe displacement HTRF) and in assay [4] was “+++ (+++ indicate a value of at least 100)” each time. The Kd in assay [2] (setting [9]) is less than 10 nM; in assay [3] (probe displacement HTRF) it was more than 10000 nM; in assay [4] it was less than 10 nM; in assay [5] it was more than 10000 nM.
As to `CNC(=O)c1ccc(N2CCC(N3CCC(c4cc5c(F)ccc(F)c5c(=O)[nH]4)C3)CC2)c(F)n1` (single isomer, unassigned) [Compound 323b], the IC50 in assay [1] (setting [8]) was less than 10 nM. The Selectivity entry in assay [2] (probe displacement HTRF) and in assay [4] was “+++ (+++ indicate a value of at least 100)” in each case. Further, the Kd is less than 10 nM in assay [2] (setting [9]), 10 to 100 nM in assay [3] (probe displacement HTRF), less than 10 nM in assay [4] and 100 to 1000 nM in assay [5].
Consider `CNC(=O)c1ccc(N2CCC(N3CCC(c4cc5c(c(=O)[nH]4)CCCC5)C3)CC2)c(F)n1` (single isomer, unassigned) [Compound 337a, 6-fluoro-N-methyl-5-(4-(3-(1-oxo-1,2,5,6,7,8-hexahydroisoquinolin-3-yl)pyrrolidin-1-yl)piperidin-1-yl)picolinamide], for which, in assay [1] (setting [8]), the IC50 is less than 10 nM. Further, the Kd in assay [2] (PARP1 HTRF, probe displacement HTRF) is less than 10 nM; in assay [3] (probe displacement HTRF), 100 to 1000 nM; in assay [4], less than 10 nM; in assay [5], 1000 to 10000 nM. Besides, the Selectivity result in assay [2] (probe displacement HTRF) and in assay [4] was “+++ (+++ indicate a value of at least 100)” each time.
